The values below come from patent US10065990B2, “Cyclic peptide compound, and preparation method, pharmaceutical composition and use thereof” (HANGZHOU GUANYU BIO-MEDICAL CO., LTD, priority 2013, dated 2018).

Read-outs that look alike come from different tables or passages of the source.

By GI50 is commonly meant the concentration giving 50% growth inhibition.

Test [1] has as its target T1, HDAC7 (Homo sapiens, UniProt Q8WUI4).
T1 sequence (Q8WUI4 1-952): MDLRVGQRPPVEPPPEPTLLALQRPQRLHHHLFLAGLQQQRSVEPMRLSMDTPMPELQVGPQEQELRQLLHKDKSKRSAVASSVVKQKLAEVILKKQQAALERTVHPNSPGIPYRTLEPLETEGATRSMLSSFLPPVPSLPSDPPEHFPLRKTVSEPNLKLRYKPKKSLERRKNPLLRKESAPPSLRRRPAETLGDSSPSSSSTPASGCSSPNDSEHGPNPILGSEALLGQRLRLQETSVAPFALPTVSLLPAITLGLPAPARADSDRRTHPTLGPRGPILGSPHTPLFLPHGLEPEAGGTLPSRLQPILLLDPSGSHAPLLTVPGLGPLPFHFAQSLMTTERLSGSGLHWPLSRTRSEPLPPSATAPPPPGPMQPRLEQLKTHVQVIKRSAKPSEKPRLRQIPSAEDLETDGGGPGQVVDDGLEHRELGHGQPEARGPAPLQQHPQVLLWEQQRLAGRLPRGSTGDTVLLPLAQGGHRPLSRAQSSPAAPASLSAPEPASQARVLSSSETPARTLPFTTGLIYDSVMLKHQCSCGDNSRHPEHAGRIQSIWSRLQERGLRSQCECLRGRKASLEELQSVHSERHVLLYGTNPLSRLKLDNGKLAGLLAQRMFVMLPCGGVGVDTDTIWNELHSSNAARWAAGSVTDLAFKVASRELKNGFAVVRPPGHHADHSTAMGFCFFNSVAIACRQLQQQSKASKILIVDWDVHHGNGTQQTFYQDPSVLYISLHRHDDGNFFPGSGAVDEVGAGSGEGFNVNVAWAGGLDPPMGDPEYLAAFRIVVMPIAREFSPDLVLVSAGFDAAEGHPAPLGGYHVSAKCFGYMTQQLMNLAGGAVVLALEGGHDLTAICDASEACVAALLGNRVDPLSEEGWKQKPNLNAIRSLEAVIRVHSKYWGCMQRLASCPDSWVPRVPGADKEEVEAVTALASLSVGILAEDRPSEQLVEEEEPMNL
The test can be described thus: HDAC biochemical activity measurement (fluorescent substrate deacetylation).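 On all read-outs here: fluorogenic deacetylation assay using acetyl-lysine substrate at 20 µM, enzyme and compound incubated 30 min at 37 °C, then developer added, fluorescence read at 360/460 nm.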 The settings on record: for IC50 HDAC7: 37° C. 30 minutes.

For test [2], the system named is A549 (human lung cancer cells). Briefly: MTT cancer cell growth inhibition. The format is cell-based. The settings on record: Homo sapiens, A549, 72 h, MTT, 72 hours incubation, read-out: GI50 A54. The method in brief:
(§1)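 Three-day compound exposure (final 10^−5–10^−10 M, three replicate wells) of cells seeded at 1500 per well precedes a 4 h MTT incubation at 37° C. Viability is taken from 570 nm absorbance after DMSO solubilisation, and GI50 calculated from it.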

Test [3] relates to BGC-823 (human gastric cancer cells). Briefly: MTT cancer cell growth inhibition. The settings on record: Homo sapiens, BGC-823, 72 h, MTT, 72 hours incubation, read-out: GI50 BG. The format is cell-based. The method, boiled down: as §1
In test [4] the test system is Bel-7402 (human hepatoma cells). Briefly: MTT cancer cell growth inhibition. It counts as cell-based. The settings on record: Homo sapiens, Bel-7402, 72 h, MTT, 72 hours incubation, Bel-7402 cells; read-out: GI50 Bel-7402. The method in brief: as §1
In test [5] the test system is DU145 (human prostate cancer cells). The test can be described thus: MTT cancer cell growth inhibition. The format is cell-based. The settings on record: Homo sapiens, DU-145, 72 h, MTT, 72 hours incubation, read-out: GI50 Du1. The method, boiled down: as §1
The subject of test [6] is H1975 (non-small cell lung adenocarcinoma). The test can be described thus: MTT cancer cell growth inhibition. It counts as cell-based. The settings on record: Homo sapiens, NCI-H1975, 72 h, MTT, 72 hours incubation, H1975 cells; read-out: GI50 H1975. The method in brief: as §1
The subject of test [7] is HCC827 (human non-small cell lung cancer cells). Briefly: MTT cancer cell growth inhibition. The format is cell-based. The settings on record: Homo sapiens, HCC827, 72 h, MTT, 72 hours incubation, HCC827 cells; read-out: GI50 HCC827. The method, boiled down:
as §1

Test [8] concerns HT1080 (human fibrosarcoma cells). Briefly: MTT cancer cell growth inhibition. It counts as cell-based. The settings on record: Homo sapiens, HT-1080, 72 h, MTT, 72 hours incubation, read-out: GI50 HT1. The method, boiled down:
as §1

Test [9] has as its system Hela (human cervical cancer cells). Briefly: MTT cancer cell growth inhibition. It counts as cell-based. The settings on record: Homo sapiens, HeLa, 72 h, MTT, 72 hours incubation, read-out: GI50 Hela. The method, boiled down: as §1
In test [10] the test system is Huh-7 (human hepatoma cells). Briefly: MTT cancer cell growth inhibition. It counts as cell-based. Conditions: Homo sapiens, Huh-7, 72 h, MTT, 72 hours incubation, Huh-7 cells; read-out: GI50 Huh-7. The method, boiled down: as §1
For test [11], the system named is K562 (human leukemia cells). The test can be described thus: MTT cancer cell growth inhibition. The settings on record: Homo sapiens, K562, 72 h, MTT, 72 hours incubation, K562 cells; read-out: GI50 K562. The format is cell-based. The method in brief: as §1
The subject of test [12] is KBM-5 (human chronic myelogenous leukemia). Briefly: MTT cancer cell growth inhibition. Conditions: Homo sapiens, KBM5, 72 h, MTT, 72 hours incubation, KBM-5 cells; read-out: GI50 KBM-5. The format is cell-based. The method in brief: as §1
Test [13] has as its system KBM5-T315I (human chronic myelogenous leukemia). The test can be described thus: MTT cancer cell growth inhibition. It counts as cell-based. Conditions: Homo sapiens, 72 h, MTT, 72 hours incubation, KBM5-T315I cells; read-out: GI50 KBM5-T315I. The method, boiled down: as §1
The test system of test [14] is MCF-7 (human breast cancer cells). The test can be described thus: MTT cancer cell growth inhibition. The settings on record: Homo sapiens, MCF7, 72 h, 72 hours incubation, read-out: GI50 MCF. The format is cell-based. The method in brief:
as §1

In test [15] the test system is MDA-MB-231 (breast cancer cells). The test can be described thus: MTT cancer cell growth inhibition. The format is cell-based. The settings on record: Homo sapiens, MDA-MB-231, 72 h, read-out: GI50 MDA-MB-231, MTT, 72 hours incubation, MDA-MB-231 cells. The method in brief:
as §1

Test [16] has as its system MOLT-4 (human acute lymphoblastic leukemia cells). The test can be described thus: MTT cancer cell growth inhibition. The format is cell-based. The settings on record: Homo sapiens, MOLT-4, 72 h, MTT, 72 hours incubation, read-out: GI50 Mol. The method in brief:
as §1

Test [17] has as its system N-87 (human gastric cancer cells). Briefly: MTT cancer cell growth inhibition. The settings on record: Homo sapiens, 72 h, MTT, 72 hours incubation, N-87 cells; read-out: GI50 N-87. It counts as cell-based. The method in brief: as §1
Test [18] deals with PANC-1 (Pac-1, human pancreatic cancer cells). Briefly: MTT cancer cell growth inhibition. Conditions: Homo sapiens, PANC-1, 72 h, MTT, 72 hours incubation, read-out: GI50 PAN. It counts as cell-based. The method, boiled down: as §1
Test [19] deals with SGC-7901 (human gastric cancer cells). The test can be described thus: MTT cancer cell growth inhibition. The format is cell-based. The settings on record: Homo sapiens, SGC-7901, 72 h, MTT, 72 hours incubation, SGC-7901 cells; read-out: GI50 SGC-7901. The method in brief:
as §1

In test [20] the test system is U937 (human leukemia cells). The test can be described thus: MTT cancer cell growth inhibition. Conditions: Homo sapiens, U-937, 72 h, MTT, 72 hours incubation, read-out: GI50 U93. The format is cell-based. The method, boiled down: as §1
Test [21] has as its system lncap (prostate cancer cells). The test can be described thus: MTT cancer cell growth inhibition. It counts as cell-based. Conditions: Homo sapiens, LNCaP, 72 h, MTT, 72 hours incubation, read-out: GI50 lnca. The method, boiled down: as §1

`CC(=O)SCC/C=C/[C@@H]1CC(=O)NCc2nc(ccc2F)C(=O)NC(=C(C)C)C(=O)N[C@@H](C(C)C)C(=O)O1` [Compound 89]: in test [1], the “IC50 HDAC7” value is on record as “no activity”. Also, the concentration for 50% growth inhibition (GI50) in test [2] came out at 0.03 µM; in test [3], 0.01 µM; in test [4] it was 0.083 µM; in test [5] it was 0.01 µM; in test [6] it was 0.026 µM; in [7], 0.083 µM. For the same compound, the concentration for 50% growth inhibition (GI50) in test [8] was 0.08 µM; in test [9], 0.09 µM; in test [10], 0.031 µM; in test [11], 0.016 µM; in test [12], 0.093 µM; in test [13], 0.038 µM. Moreover, the 50% growth inhibitory concentration (GI50) came out at 0.03 µM in test [14]; 0.031 µM in test [15]; 0.03 µM in test [16]; 0.013 µM in test [17]; 0.08 µM in test [18]; 0.034 µM in test [19]. The GI50 worked out at 0.02 µM in [20] and 0.03 µM in test [21].
As for `C/C=C1\NC(=O)c2cc(SCC)cc(n2)CNC(=O)C[C@@H](/C=C/CCSC(=O)CCCCCCC)OC(=O)[C@H](C(C)C)NC1=O` [Compound 248], the “IC50 (μM) HDAC7” value in [1] is recorded as “no activity”. Moreover, the GI50 in [2] (A549 cells) was found to be 0.03 µM; in test [3] (BGC-823 cells), 0.06 µM; in test [4] it was 0.029 µM; in test [5] (DU145 cells) it was 0.03 µM; in test [6], 0.065 µM; in [7], 0.093 µM. In addition, the GI50 in test [8] (HT1080 cells) stood at 0.05 µM; in [9] (Hela cells), 0.06 µM; in [10], 0.033 µM; in [11], 0.048 µM; in [12], 0.023 µM; in [13] it was 0.072 µM. Moreover, the GI50 in test [14] (MCF-7 cells) was 0.03 µM; in test [15], 0.045 µM; in test [16] (MOLT-4 cells) it was 0.03 µM; in [17], 0.083 µM; in [18] (PANC-1 cells), 0.02 µM; in test [19], 0.026 µM. The 50% growth inhibitory concentration (GI50) was determined as 0.08 µM in [20] (U937 cells) and 0.03 µM in test [21] (lncap cells).
On to `C/C=C1\NC(=O)c2cc(SCC)cc(n2)CNC(=O)C[C@@H](/C=C/CCSC(=O)CCCCCC)OC(=O)[C@H](C(C)C)NC1=O` [Compound 251], for which, in test [1], the “IC50 (μM) HDAC7” value is reported as “no activity”. Moreover, the GI50 in [2] (A549 cells) is 0.06 µM; in [3] (BGC-823 cells) it was 0.03 µM; in test [4] it was 0.042 µM; in [5] (DU145 cells), 0.02 µM; in test [6], 0.063 µM; in [7] it was 0.053 µM. Besides, the GI50 in [8] (HT1080 cells) worked out at 0.02 µM; in [9] (Hela cells) it was 0.02 µM; in test [10], 0.055 µM; in test [11], 0.035 µM; in [12] it was 0.066 µM; in test [13], 0.081 µM. Also, the GI50 in [14] (MCF-7 cells) is 0.04 µM; in test [15], 0.038 µM; in [16] (MOLT-4 cells), 0.07 µM; in test [17], 0.036 µM; in [18] (PANC-1 cells) it was 0.05 µM; in [19], 0.049 µM. Further, the GI50 in test [20] (U937 cells) came to 0.03 µM; in test [21] (lncap cells) it was 0.09 µM.
Take `C/C=C1\NC(=O)c2cc(F)cc(n2)CNC(=O)C[C@@H](/C=C/CCS)OC(=O)[C@H](Cc2ccc(O)cc2)NC1=O` [Compound 129]: the “IC50 HDAC7” value in test [1] was “no activity”. Moreover, the 50% growth inhibitory concentration (GI50) came out at 0.08 µM in test [2]; 0.03 µM in test [3]; 0.041 µM in test [4]; 0.03 µM in [5]; 0.033 µM in test [6]; 0.022 µM in test [7]. In addition, the 50% growth inhibitory concentration (GI50) in test [8] was 0.13 µM; in test [9], 0.04 µM; in [10], 0.038 µM; in [11], 0.042 µM; in test [12], 0.035 µM; in [13], 0.042 µM. Besides, the concentration for 50% growth inhibition (GI50) in test [14] was found to be 0.03 µM; in test [15], 0.041 µM; in test [16], 0.06 µM; in test [17], 0.021 µM; in test [18], 0.05 µM; in test [19] it was 0.033 µM. Also, the GI50 was determined as 0.01 µM in [20] and 0.07 µM in test [21].
